This note sets out measurements from patent US20170333112A1, “Optimizing Total Energy Delivered in Nanosecond Pulses for Triggering Apoptosis in Cultured Cells” (Pulse Biosciences, Inc., priority 2016, published 2017).

One test deals with MCA205 cells. As to the kind of experiment: ATP released from cells after treatment (FIG. 10). It counts as cell-based, murine. The source says:
(§1) FIG. 10 includes charts showing ATP released from MCA205, McA-RH7777, and Jurkat E6-1 cells at different numbers of pulses.

The next test has as its system McA-RH7777 cells. As to the kind of experiment: ATP released from cells after treatment (FIG. 10). Type of test: cell-based, rat.
Description: as §1

Setting [1] is: higher concentration (100 μM), rank among treatment groups (NPS 15 J/mL highest).
Setting [2] is: both high and low concentrations (4 and 10 μM).

Molecules are shown by their SMILES.

Regarding `COc1cccc2c1C(=O)c1c(O)c3c(c(O)c1C2=O)C[C@@](O)(C(=O)CO)C[C@@H]3O[C@H]1C[C@H](N)[C@H](O)[C@H](C)O1` [doxorubicin], in the test with MCA205 cells (100 μM), the “ATP levels compared with untreated cells” value is listed as “significantly higher”. In addition, the ATP released result in the test with MCA205 cells (setting [1]) and with McA-RH7777 cells (setting [1]) was “second highest amount of ATP” in each case.

In the case of `O=C1c2c(O)ccc(O)c2C(=O)c2c(NCCNCCO)ccc(NCCNCCO)c21` [mitoxantrone], the ATP released result in the test on MCA205 cells (setting [2]) and with McA-RH7777 cells (setting [2]) was “comparatively small amount ATP” throughout.
